US10231453B2, “5-substituted imidazole derivatives” (BAYER CROPSCIENCE AKTIENGESELLSCHAFT, priority 2015, dated 2019)
Marks after values point to notes of the source that are not given here.

What was measured:
[1] = Measurement of LogP values by HPLC on reversed phase columns (EEC directive 79/831 Annex V.A8); format: physicochemical; details: for chromatographic logP: method [a]: LC-UV, acidic range, 0.1% formic acid in water and acetonitrile as eluent, Table 1
Method: Measurement of Log P values was performed as outlined above.

[2] = test system: Puccinia recondita; test: In vivo preventive test on Puccinia recondita (brown rust on wheat), Examples C and R3; details: preventive spray, evaluated 11 days after inoculation; for Efficacy in %: Example R3, wheat; for pest or weed control at 500 ppm: Puccinia recondita, 264 h, 500 ppm of active ingredient, wheat, read-out: efficacy
[3] = test system: Septoria tritici; test: In vivo preventive test on Septoria tritici (leaf spot on wheat), Examples E, Q3 and R5; details: Zymoseptoria tritici, 576 h, 500 ppm of active ingredient; wheat, preventive spray, evaluated 24 days after inoculation; read-out: efficacy
[4] = test system: Sphaerotheca fuliginea; test: In vivo preventive test on Sphaerotheca fuliginea (powdery mildew on cucurbits), Examples F and R6; details: Podosphaera fuliginea, 360 h; 500 ppm of active ingredient; gherkin, preventive spray, evaluated 15 days after inoculation; read-out: efficacy
[5] = test system: Uromyces appendiculatus; test: In vivo preventive test on Uromyces appendiculatus (bean rust), Examples G and R7; details: 264 h, 500 ppm of active ingredient, bean, preventive spray, evaluated 11 days after inoculation, read-out: efficacy

With `N#Cc1cncn1CC(O)(Cc1ccncc1Br)C1(Cl)CC1` (racemic) [Example I-46] the LogP [1] was 1.94^[a].

With `N#Cc1cncn1CC(O)(Cc1ccc(Oc2ccc(Cl)cc2)cc1Cl)C1(Cl)CC1` (racemic) [Example I-53] the LogP [1] was 4.54^[a].

In the case of `O=C(Cc1ccccc1F)c1cncn1CC(O)(Cc1ccccc1F)C1(Cl)CC1` (racemic) [Example I-134], the LogP [1] is reported as 3.60^[a].

For `OC(Cc1ccc(Cl)cc1F)(Cn1cnc(Br)c1)C1(Cl)CC1` (racemic) [drawing 98], the Efficacy in % ([2]; 100 ppm) was 0% and the Efficacy in % ([2]; 500 ppm) was 94%.

`N#Cc1cn(CC(O)(Cc2ccc(Cl)cc2F)C2(Cl)CC2)cn1` (racemic) [drawing 100] showed an Efficacy in % ([2]; 100 ppm) of 81% and an Efficacy in % ([2]; 500 ppm) of 94%.

In the case of `OC(Cc1ccc(Cl)cc1F)(Cn1cnc(Cl)c1)C1(Cl)CC1` (racemic) [drawing 102], the Efficacy in % ([2]; 100 ppm) is reported as 0% and the Efficacy in % ([2]; 500 ppm) is reported as 67%.

In the case of `OC(Cc1ccc(Cl)cc1F)(Cn1cncc1Cl)C1(Cl)CC1` (single isomer, unassigned) [Example I-113], the LogP [1] is reported as 2.54^[a].

For `N#Cc1cncn1CC(O)(Cc1ccccc1F)C1(Cl)CC1` (single isomer, unassigned) [Example I-132], the LogP [1] was 2.59^[a].

With `N#Cc1cncn1CC(O)(Cc1ccccc1F)C1(Cl)CC1` (single isomer, unassigned) [Example I-133] the LogP [1] was 2.59^[a].

Compound `OC(Cc1ccccc1Cl)(Cn1cncc1-c1ccccc1)C1(Cl)CC1` (stereo not shown) [Example I-09] has a pest or weed control at 500 ppm [3] of 70 to 79%, a pest or weed control at 500 ppm [4] of 90 to 100% and a pest or weed control at 500 ppm [5] of 90 to 100%.

`N#Cc1cncn1CC(O)(C(F)c1ccccc1F)C1(Cl)CC1` (stereo not shown) [Example I-31] showed a pest or weed control at 500 ppm [2] of 90 to 100%, a pest or weed control at 500 ppm [3] of 90 to 100% and a pest or weed control at 500 ppm [4] of 90 to 100%. It also gave a pest or weed control at 500 ppm [5] of 90 to 100%.

For `N#Cc1cncn1CC(O)(Cc1ccc(Cl)cc1Cl)C1(Cl)CC1` (stereo not shown) [Example I-52], the pest or weed control at 500 ppm [2] was 80 to 89%, the pest or weed control at 500 ppm [3] was 90 to 100% and the pest or weed control at 500 ppm [4] was 90 to 100%. The pest or weed control at 500 ppm [5] was 90 to 100%.

Compound `N#Cc1cncn1CC(O)(Cc1cc(Cl)nc(Cl)c1)C1(Cl)CC1` (stereo not shown) [Example I-61] has a pest or weed control at 500 ppm [2] of 70 to 79%, a pest or weed control at 500 ppm [3] of 90 to 100% and a pest or weed control at 500 ppm [4] of 90 to 100%. It also gave a pest or weed control at 500 ppm [5] of 90 to 100%.

Compound `N#Cc1cncn1CC(O)(Cc1ccc(-c2ccccc2)cc1)C1(Cl)CC1` (stereo not shown) [Example I-63] has a chromatographic logP [1] of 3.68.

For `N#Cc1cncn1CC(O)(Cc1ccccc1Cl)C1CCC1` (stereo not shown) [Example I-81], the pest or weed control at 500 ppm [2] was 90 to 100%, the pest or weed control at 500 ppm [3] was 90 to 100% and the pest or weed control at 500 ppm [4] was 90 to 100%. It also gave a pest or weed control at 500 ppm [5] of 90 to 100%.

For `CC(C)(C)CC(O)(Cc1ccccc1Cl)Cn1cncc1C#N` (stereo not shown) [Example I-83], the chromatographic logP [1] was 3.55.

`CC(C)(C)CC(O)(Cc1ccc(Cl)cc1)Cn1cncc1C#N` (stereo not shown) [Example I-86] gave a chromatographic logP [1] of 3.37.

In the case of `N#Cc1cncn1CC(O)(Cc1ccc(F)c(F)c1F)C1(F)CC1` (stereo not shown) [Example I-93], the chromatographic logP [1] is reported as 2.52.

In the case of `N#Cc1cncn1CC(O)(Cc1cccc(Cl)c1F)C1(F)CC1` (stereo not shown) [Example I-94], the chromatographic logP [1] is reported as 2.68.

Compound `N#Cc1cncn1CC(O)(Cc1ccc(F)cc1)C1(F)CC1` (stereo not shown) [Example I-100] has a chromatographic logP [1] of 2.35.

Compound `CC1(C(O)(Cc2ccc(F)c(F)c2F)Cn2cncc2C#N)CC1` (stereo not shown) [Example I-102] has a chromatographic logP [1] of 2.82.

`N#Cc1cncn1CC(O)(Cc1ccc(Cl)cc1F)C1CC1` (stereo not shown) [Example I-115] showed a pest or weed control at 500 ppm [2] of 90 to 100%, a pest or weed control at 500 ppm [3] of 90 to 100% and a pest or weed control at 500 ppm [4] of 90 to 100%. For the same compound, the pest or weed control at 500 ppm [5] was 90 to 100%.

Work on `N#Cc1cncn1CC(O)(Cc1ccc(F)cc1F)C1CCC1` (stereo not shown) [Example I-127] yielded a pest or weed control at 500 ppm [2] of 80 to 89%, a pest or weed control at 500 ppm [3] of 90 to 100% and a pest or weed control at 500 ppm [4] of 90 to 100%. For the same compound, the pest or weed control at 500 ppm [5] was 90 to 100%.

`CCOC(=O)c1cncn1CC(O)(Cc1ccccc1F)C1(Cl)CC1` (stereo not shown) [Example I-135] showed a chromatographic logP [1] of 2.73.

`N#Cc1cncn1CC(O)(Cc1cccc(Cl)c1F)C1(Cl)CC1` (stereo not shown) [Example I-145] gave a chromatographic logP [1] of 3.02.

Work on `N#Cc1cncn1CC(O)(Cc1ccc(F)cc1)C1(Cl)CCC1` (stereo not shown) [Example I-159] yielded a chromatographic logP [1] of 2.98.

With `N#Cc1cncn1CC(O)(Cc1ccc(F)cc1)C1CCC1` (stereo not shown) [Example I-160] the chromatographic logP [1] was 2.56.

Work on `N#Cc1cncn1CC(O)(Cc1ccc(F)cc1)C1CCCC1` (stereo not shown) [Example I-161] yielded a chromatographic logP [1] of 2.82.

Compound `CC(C)C(O)(Cc1ccc(F)cc1)Cn1cncc1C#N` (stereo not shown) [Example I-162] has a chromatographic logP [1] of 2.44.
